According to patent publication US9108951B2, “Substituted 5,6,7,8-tetrahydro-1,6-naphthyridines as factor XIa inhibitors” (BRISTOL-MYERS SQUIBB COMPANY, priority 2011, dated 2015):
Counter-ions that a name gives are not always drawn.

target: purified human Factor XIa (Homo sapiens (Human), UniProt P03951); assay: Factor XIa assay (chromogenic substrate hydrolysis, Ki); assay type: biochemical; settings: synthetic substrate S-2366, 50 mM HEPES pH 7.4
Experimental: The effectiveness of compounds of the present invention as inhibitors of the coagulation factors XIa, VIIa, IXa, Xa, XIIa, plasma kallikrein or thrombin, can be determined using a relevant purified serine protease, respectively, and an appropriate synthetic substrate. The rate of hydrolysis of the chromogenic or fluorogenic substrate by the relevant serine protease was measured both in the absence and presence of compounds of the present invention. […] A decrease in the rate of absorbance or fluorescence change in the presence of inhibitor is indicative of enzyme inhibition. Such methods are known to one skilled in the art. The results of this assay are expressed as the inhibitory constant, Ki.
Values of Ki were determined by allowing the protease to react with the substrate in the presence of the inhibitor. Reactions were allowed to go for periods of 20-180 minutes (depending on the protease) and the velocities (rate of absorbance or fluorescence change versus time) were measured. The following relationships were used to calculate Ki values: (vo−vs)/vs=I/(Ki(1+S/Km)) for a competitive inhibitor with one binding site; or vs/vo=A+((B−A)/1+((IC50/(I)n))); and Ki=IC50/(1+S/Km) for a competitive inhibitor where: […]

purified human Factor XIa, sequence (P03951 388-625): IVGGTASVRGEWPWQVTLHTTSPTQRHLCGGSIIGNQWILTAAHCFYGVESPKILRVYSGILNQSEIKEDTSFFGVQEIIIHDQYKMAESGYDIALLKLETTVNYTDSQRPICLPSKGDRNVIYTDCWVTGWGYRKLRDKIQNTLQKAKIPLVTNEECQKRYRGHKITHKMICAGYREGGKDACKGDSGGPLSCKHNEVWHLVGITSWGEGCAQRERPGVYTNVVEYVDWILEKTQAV
purified human Factor XIa, sequence (P03951 19-387 partner): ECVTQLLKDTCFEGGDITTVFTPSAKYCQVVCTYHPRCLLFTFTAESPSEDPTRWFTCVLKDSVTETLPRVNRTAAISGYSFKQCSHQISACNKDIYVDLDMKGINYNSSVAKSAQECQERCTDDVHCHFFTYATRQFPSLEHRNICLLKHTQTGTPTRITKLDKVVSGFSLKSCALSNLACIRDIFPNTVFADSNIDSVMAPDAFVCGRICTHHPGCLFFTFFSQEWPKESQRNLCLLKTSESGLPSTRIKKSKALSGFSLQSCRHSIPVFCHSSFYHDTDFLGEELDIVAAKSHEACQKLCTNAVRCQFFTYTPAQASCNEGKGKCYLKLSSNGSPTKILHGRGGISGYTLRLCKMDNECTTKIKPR

Compound | Ki [nM]
NC(=O)c1ccc(-c2nccc3c2CCN(C(=O)/C=C/c2c(-n4cnnn4)ccc(Cl)c2F)C3C(=O)Nc2ccc3cn[nH]c3c2)cc1 (centres unmarked) [Example 23, (E)-5-(4-Carbamoylphenyl)-2-(3-(3-chloro-2-fluoro-6-(1H-tetrazol-1-yl)phenyl)acryloyl)-N-(1H-indazol-6-yl)-1,2,3,4-tetrahydro-2,6-naphthyridine-1-carboxamide, TFA salt] | < 5
O=C(O)c1ccc(NC(=O)C2c3ccnc(N4CCOCC4)c3CCN2C(=O)/C=C/c2c(-n3cnnn3)ccc(Cl)c2F)cc1 (centres unmarked) [Example 28, (E)-4-(2-(3-(3-Chloro-2-fluoro-6-(1H-tetrazol-1-yl)phenyl)acryloyl)-5-morpholino-1,2,3,4-tetrahydro-2,6-naphthyridine-1-carboxamido)benzoic acid, TFA Salt] | < 5
O=C(Nc1ccc(C2CCCN2)cc1)[C@@H]1c2ccccc2CCN1C(=O)/C=C/c1cc(Cl)ccc1-n1cnnn1 (stereo partly drawn) [Example 40, (1S)-2-((E)-3-(5-Chloro-2-(1H-tetrazol-1-yl)phenyl)acryloyl)-N-(4-(pyrrolidin-2-yl)phenyl)-1,2,3,4-tetrahydroisoquinoline-1-carboxamide, TFA salt] | 6730
O=C(O)c1ccc(NC(=O)[C@@H]2c3ccccc3CCN2C(=O)C#Cc2cc(Cl)ccc2-n2cnnn2)cc1 [Example 48, (S)-4-(2-(3-(5-Chloro-2-(1H-tetrazol-1-yl)phenyl)propioloyl)-1,2,3,4-tetrahydroisoquinoline-1-carboxamido)benzoic acid] | 7.08
CC1(C)CN(C(=O)/C=C/c2cc(Cl)ccc2-n2cnnn2)C(C(=O)Nc2ccc(C(=O)O)cc2)c2c(Br)cccc21 (centres unmarked) [Example 55, (E)-4-(8-bromo-2-(3-(5-chloro-2-(1H-tetrazol-1-yl)phenyl)acryloyl)-4,4-dimethyl-1,2,3,4-tetrahydroisoquinoline-1-carboxamido)benzoic acid] | 172
CCc1nn(C)c2c1C(C(=O)Nc1ccc(C(=O)O)cc1)N(C(=O)/C=C/c1cc(Cl)ccc1-n1cnnn1)CC2 (centres unmarked) [Example 65, (E)-4-(5-(3-(5-Chloro-2-(1H-tetrazol-1-yl)phenyl)acryloyl)-3-ethyl-1-methyl-4,5,6,7-tetrahydro-1H-pyrazolo[4,3-c]pyridine-4-carboxamido)benzoic acid, TFA salt] | 23.3
Cc1[nH]nc2c1C(C(=O)Nc1ccc(C(=O)OC(C)(C)C)cc1)N(C(=O)/C=C/c1c(-n3cnnn3)ccc(Cl)c1F)CC2 (centres unmarked) [Example 76, (E)-tert-butyl 4-(5-(3-(3-chloro-2-fluoro-6-(1H-tetrazol-1-yl)phenyl)acryloyl)-3-methyl-4,5,6,7-tetrahydro-2H-pyrazolo[4,3-c]pyridine-4-carboxamido)benzoate, TFA salt] | 566
Cc1[nH]nc2c1C(C(=O)Nc1ccc(C(=O)O)cc1)N(C(=O)/C=C/c1c(-n3cnnn3)ccc(Cl)c1F)CC2 (centres unmarked) [Example 77, (E)-4-(5-(3-(3-chloro-2-fluoro-6-(1H-tetrazol-1-yl)phenyl)acryloyl)-3-methyl-4,5,6,7-tetrahydro-2H-pyrazolo[4,3-c]pyridine-4-carboxamido)benzoic acid, TFA salt] | 5.02
